CCCN(C)CCCCC1CCN(S(=O)(=O)c2ccc(C(F)(F)F)cc2)CC1 [Example 20.1, Methyl-propyl-{4-[1-(4-trifluoromethyl-benzenesulfonyl)-piperidin-4-yl]-butyl}-amine]
melting point: 73 to 74.8 °C

— patent US6964974B2, “2,3-oxidosqualene-lanosterol cyclase inhibitors” (Hoffmann-La Roche Inc., priority 2000, dated 2005)
